Drawing on US20250163104A1, “MACROCYCLIC IMMUNOMODULATORS” (priority 2021, published 2025), this text covers IC50 for 14 compounds.

Where two headings read alike, the source gives them in different places. *1 amine or outer side, *2 acyl side, *3 side chain or, on linkers, in order; H or OH if unused. Where a SMILES comes first, the peptide text is derived from it. Bridges are numbered along the chain shown (N, C = ends). [ ]: non-standard residue; d: D form. The star is where a group is joined. ξ: configuration not given here. Phe(3-CF3) = N[C@@H](Cc1cccc(C(F)(F)F)c1)C(=O)O; Phe(4-COOH) = N[C@@H](Cc1ccc(C(=O)O)cc1)C(=O)O; X5 = O=C([C@H](Cc1ccc2ncccc2c1)N[*:1])[*:2]; Asp(3,3-Me2) = CC(C)(C(=O)O)[C@H](N)C(=O)O; Bip = N[C@@H](Cc1ccc(-c2ccccc2)cc1)C(=O)O; Phe(3-Me) = Cc1cccc(C[C@H](N)C(=O)O)c1; Phe(4-Me) = Cc1ccc(C[C@H](N)C(=O)O)cc1; Val(3-OH) = CC(C)(O)[C@H](N)C(=O)O; 4Pal = N[C@@H](Cc1ccncc1)C(=O)O; Cha = N[C@@H](CC1CCCCC1)C(=O)O; Cit = NC(=O)NCCC[C@H](N)C(=O)O; Thr(3ξ) = CC(O)[C@H](N)C(=O)O; Carboxymethyl = O=C(O)C*; Nle = CCCC[C@H](N)C(=O)O; Orn = NCCC[C@H](N)C(=O)O; Dab = NCC[C@H](N)C(=O)O; Dap = NC[C@H](N)C(=O)O; Propargyl = C#CC*

The assay concerns the target T1, human PD-1 / PD-L1-Ig binding on Jurkat cell line over-expressing human PD-1 (Jurkat-PD-1) (Homo sapiens, UniProt Q15116).
T1 construct: expressed in transfected cells; host or cells: Jurkat
Briefly: Jurkat-PD-1 Cell Binding High-Content Screening Assay (CBA). In kind it is cell-based. As to conditions: PE-labeled PD-L1-Ig 20 nM final. The method in brief:
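Read-out: high-content imaging of PE-tagged PD-L1-Ig bound to Jurkat cells overexpressing human PD-1, after fixation with 4% paraformaldehyde and Hoechst 33342 nuclear staining. Ligand was used at 20 nM final for 1 hour, after a 2 h compound exposure at 37° C in serum-containing DMEM.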

[1] abbreviates: Jurkat-PD-1 cells, read-out: Jurkat HPD1_PDL1 IC50.

T1 sequence (Q15116 25-288): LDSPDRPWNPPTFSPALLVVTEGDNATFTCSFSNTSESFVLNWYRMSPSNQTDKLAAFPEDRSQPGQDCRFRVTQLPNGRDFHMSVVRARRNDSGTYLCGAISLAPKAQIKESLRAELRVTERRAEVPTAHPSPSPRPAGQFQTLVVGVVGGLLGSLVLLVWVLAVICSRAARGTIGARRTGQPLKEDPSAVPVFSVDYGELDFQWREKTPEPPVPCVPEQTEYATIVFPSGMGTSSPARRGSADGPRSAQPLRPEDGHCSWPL

As a reminder, the IC50 is the concentration needed to halve the response being measured. `CC(C)C[C@H]1NC(=O)[C@H](CCCN)NC(=O)[C@H](C(C)C)NC(=O)[C@H](Cc2ccc(-c3ccccc3)cc2)NC(=O)[C@H](C(C)C)NC(=O)[C@H](Cc2c[nH]c3ccccc23)NC(=O)[C@H](CC(=O)O)NC(=O)[C@H](Cc2ccc(OCc3ccccc3)cc2)NC(=O)[C@H](CN)NC(=O)CSC[C@@H](C(=O)N[C@@H](C)C(N)=O)NC(=O)[C@H]([C@@H](C)O)NC(=O)[C@H](C(C)C)NC(=O)[C@H](CC2CCCCC2)NC(=O)[C@H](CCN)NC1=O` [Compound 1528] gave an IC50 (Jurkat HPD1_PDL1 IC50, Jurkat-PD-1 cells) of 100 nM.
`CC(C)C[C@@H]1NC(=O)[C@H](Cc2c[nH]c3ccccc23)NC(=O)[C@H](CC(=O)O)NC(=O)[C@H](Cc2ccc(OCC(=O)O)cc2)NC(=O)[C@H](CN)NC(=O)CSC[C@@H](C(=O)N[C@@H](C)C(N)=O)NC(=O)[C@H]([C@@H](C)O)NC(=O)[C@H](C(C)C)NC(=O)[C@H](CC(C)C)NC(=O)[C@H](CCN)NC(=O)[C@@H](CC(C)C)NC(=O)[C@H](CCCN)NC(=O)[C@H](C(C)C)NC(=O)[C@H](Cc2ccc(-c3ccccc3)cc2)NC1=O` [Compound 1313] ({CH2CO}-[Dap]Y(Carboxymethyl)DWL[Bip]V[Orn][dL][Dab]LVTCA-NH2; thioether N-14): the concentration for half-maximal inhibition (IC50) under setting [1] worked out at 15.7 nM.
Still for that read-out and setting: then `CC(C)C[C@H]1NC(=O)[C@H](CCCN)NC(=O)[C@H](CCC(=O)O)NC(=O)[C@H](Cc2ccc(-c3ccccc3)cc2)NC(=O)[C@H](C(C)C)NC(=O)[C@H](Cc2cccc(Cl)c2)NC(=O)[C@H](CC(=O)O)NC(=O)[C@H](Cc2ccc(OCC(=O)O)cc2)NC(=O)[C@H](Cc2ccc(OCC(=O)O)cc2)NC(=O)CSC[C@@H](C(=O)N[C@@H](C)C(N)=O)NC(=O)[C@H]([C@@H](C)O)NC(=O)[C@H](C(C)C)NC(=O)[C@H](CC2CCCCC2)NC(=O)[C@H](CCN)NC1=O` [Compound 1490], with 20.2 nM; and `C#CCOc1ccc(C[C@@H]2NC(=O)[C@H](Cc3cccc(C)c3)NC(=O)[C@H](CC(=O)O)NC(=O)[C@H](Cc3ccc(C(=O)O)cc3)NC(=O)[C@H]([C@@H](C)O)NC(=O)CSC[C@@H](C(=O)N[C@@H](CCN)C(N)=O)NC(=O)[C@H](CCC(=O)O)NC(=O)[C@H](C(C)C)NC(=O)[C@H](CC3CCCCC3)NC(=O)[C@H](CCN)NC(=O)[C@@H](CC(C)C)NC(=O)[C@H](CCCN)NC(=O)[C@H](Cc3ccc(C(=O)O)cc3)NC(=O)[C@H](Cc3ccc(-c4ccccc4)cc3)NC2=O)cc1` [Compound 1841] ({CH2CO}-T[Phe(4-COOH)]D[Phe(3-Me)]Y(Propargyl)[Bip][Phe(4-COOH)][Orn][dL][Dab][Cha]VEC[Dab]-NH2; thioether N-14), with 3.9 nM; and `CC(C)C[C@H]1NC(=O)[C@H](CCCN)NC(=O)[C@H](CCCCN)NC(=O)[C@H](Cc2ccc(-c3ccccc3)cc2)NC(=O)[C@H](C(C)C)NC(=O)[C@H](Cc2c[nH]c3ccccc23)NC(=O)[C@H](CC(=O)O)NC(=O)[C@H](Cc2ccncc2)NC(=O)[C@H](CN)NC(=O)CSC[C@@H](C(=O)N[C@@H](CCCN)C(N)=O)NC(=O)[C@H](CCCNC(=N)N)NC(=O)[C@H](C(C)C)NC(=O)[C@H](CC2CCCCC2)NC(=O)[C@H](CCN)NC1=O` [Compound 2254] ({CH2CO}-[Dap][4Pal]DWV[Bip]K[Orn][dL][Dab][Cha]VRC[Orn]-NH2; thioether N-14), with 123 nM.
For the compound `CC(C)C[C@H]1NC(=O)[C@H](CCCN)NC(=O)[C@H](CCCNC(N)=O)NC(=O)[C@H](Cc2ccc(-c3ccccc3)cc2)NC(=O)[C@H]([C@@H](C)O)NC(=O)[C@H](Cc2c[nH]c3ccccc23)NC(=O)[C@H](CC(=O)O)NC(=O)[C@H](Cc2ccc(OCC(=O)O)cc2)NC(=O)[C@H](CN)NC(=O)CSC[C@@H](C(=O)N[C@@H](C)C(N)=O)NC(=O)[C@H]([C@@H](C)O)NC(=O)[C@H](C(C)C)NC(=O)[C@H](CC2CCCCC2)NC(=O)[C@H](CCN)NC1=O` [Compound 1315] ({CH2CO}-[Dap]Y(Carboxymethyl)DWT[Bip][Cit][Orn][dL][Dab][Cha]VTCA-NH2; thioether N-14), under setting [1], the IC50 was 18.6 nM.
The same measure, in the same setting: then `Cc1cccc(C[C@@H]2NC(=O)[C@H](CC(=O)O)NC(=O)[C@H](Cc3ccc(OCC(=O)O)cc3)NC(=O)[C@H](CCN)NC(=O)CSC[C@@H](C(=O)N[C@H](C(N)=O)C(C)(C)C(=O)O)NC(=O)[C@H](CO)NC(=O)[C@H](C(C)(C)O)NC(=O)[C@H](CC3CCCCC3)NC(=O)[C@H](CCN)NC(=O)[C@@H](CC(C)C)NC(=O)[C@H](CCCN)NC(=O)[C@H](Cc3ccc(OCC(=O)O)cc3)NC(=O)[C@H](Cc3ccc(-c4ccccc4)cc3)NC(=O)[C@H](Cc3ccc(OCC(=O)O)cc3)NC2=O)c1` [Compound 2071] ({CH2CO}-[Dab]Y(Carboxymethyl)D[Phe(3-Me)]Y(Carboxymethyl)[Bip]Y(Carboxymethyl)[Orn][dL][Dab][Cha][Val(3-OH)]SC[Asp(3,3-Me2)]-NH2; thioether N-14), with 148 nM; and `CC[C@H](C)[C@@H]1NC(=O)[C@H](Cc2ccc(-c3ccccc3)cc2)NC(=O)[C@H](C(C)C)NC(=O)[C@H](Cc2cccc(C(F)(F)F)c2)NC(=O)[C@H](CC(=O)O)NC(=O)[C@H](Cc2ccncc2)NC(=O)[C@H](CN)NC(=O)CSC[C@@H](C(=O)N[C@@H](C)C(N)=O)NC(=O)[C@H]([C@@H](C)O)NC(=O)[C@H](C(C)C)NC(=O)[C@H](CC2CCCCC2)NC(=O)[C@H](CCN)NC(=O)[C@@H](CC(C)C)NC(=O)[C@H](CCCN)NC1=O` [Compound 1564] ({CH2CO}-[Dap][4Pal]D[Phe(3-CF3)]V[Bip]I[Orn][dL][Dab][Cha]VTCA-NH2; thioether N-14), with 36.1 nM.
Same read-out and setting: then `Cc1ccc(C[C@@H]2NC(=O)[C@H](CCN)NC(=O)[C@@H](CC(C)C)NC(=O)[C@H](CCCN)NC(=O)[C@H](CCC(=O)O)NC(=O)[C@H](Cc3ccc(-c4ccccc4)cc3)NC(=O)[C@H](C(C)C)NC(=O)[C@H](Cc3c[nH]c4ccccc34)NC(=O)[C@H](CC(=O)O)NC(=O)[C@H](Cc3ccc(OCC(=O)O)cc3)NC(=O)[C@H](CN)NC(=O)CSC[C@@H](C(=O)N[C@@H](C)C(N)=O)NC(=O)[C@H]([C@@H](C)O)NC(=O)[C@H](C(C)C)NC2=O)cc1` [Compound 1471] ({CH2CO}-[Dap]Y(Carboxymethyl)DWV[Bip]E[Orn][dL][Dab][Phe(4-Me)]VTCA-NH2; thioether N-14), with 305 nM.
For `CC(C)C[C@@H]1NC(=O)[C@H](Cc2c[nH]c3ccccc23)NC(=O)[C@H](CC(=O)O)NC(=O)[C@H](Cc2ccc(O)cc2)NC(=O)[C@H](Cc2ccccc2)NC(=O)CSC[C@@H](C(=O)N[C@@H](C)C(N)=O)NC(=O)[C@H](CO)NC(=O)[C@H](C(C)C)NC(=O)[C@H](CC(C)C)NC(=O)[C@H](CCN)NC(=O)[C@@H](CC(C)C)NC(=O)[C@H](CCN)NC(=O)[C@H](CCCNC(N)=O)NC(=O)[C@H](Cc2ccc(-c3ccccc3)cc2)NC1=O` [Compound 1228] ({CH2CO}-FYDWL[Bip][Cit][Dab][dL][Dab]LVSCA-NH2; thioether N-14), under setting [1], the IC50 was 17.5 nM.
Take `COc1ccc(C[C@@H]2NC(=O)[C@H](C(C)O)NC(=O)CSC[C@@H](C(=O)N[C@@H](CCN)C(N)=O)NC(=O)[C@H](Cc3c[nH]cn3)NC(=O)[C@H](C(C)(C)O)NC(=O)[C@H](CC3CCCCC3)NC(=O)[C@H](CCN)NC(=O)[C@@H](CC(C)C)NC(=O)[C@H](CCCN)NC(=O)[C@H](Cc3ccc(OCC(=O)O)cc3)NC(=O)[C@H](Cc3ccc(-c4ccccc4)cc3)NC(=O)[C@H](Cc3ccc(OCC(=O)O)cc3)NC(=O)[C@H](Cc3cccc(C)c3)NC(=O)[C@H](CC(=O)O)NC2=O)cc1` (stereo partly drawn) [Compound 2674] ({CH2CO}-[Thr(3ξ)]Y(Me)D[Phe(3-Me)]Y(Carboxymethyl)[Bip]Y(Carboxymethyl)[Orn][dL][Dab][Cha][Val(3-OH)]HC[Dab]-NH2; thioether N-14): under setting [1], the IC50 was determined as 6.2 nM.
On the same count and under the same terms, then `CCCC[C@@H]1NC(=O)[C@H](CCCNC(=N)N)NC(=O)[C@@H](CC(C)C)NC(=O)[C@H](CCCN)NC(=O)[C@H](CCCNC(N)=O)NC(=O)[C@H](Cc2ccc(-c3ccccc3)cc2)NC(=O)[C@H](C(C)C)NC(=O)[C@H](Cc2c[nH]c3ccccc23)NC(=O)[C@H](CC(=O)O)NC(=O)[C@H](Cc2ccc(O)cc2)NC(=O)[C@H](CN)NC(=O)CSC[C@@H](C(=O)N[C@@H](C)C(N)=O)NC(=O)[C@H]([C@@H](C)O)NC(=O)[C@H](C(C)C)NC1=O` [Compound 1175] ({CH2CO}-[Dap]YDWV[Bip][Cit][Orn][dL]R[Nle]VTCA-NH2; thioether N-14), with 82 nM; and `CC(C)C[C@H]1NC(=O)[C@H](CCCN)NC(=O)[C@H](CCC(=O)O)NC(=O)[C@H](Cc2ccc(-c3ccccc3)cc2)NC(=O)[C@H](C(C)C)NC(=O)[C@H](Cc2c[nH]c3ccccc23)NC(=O)[C@H](CC(=O)O)NC(=O)[C@H](Cc2ccc3ncccc3c2)NC(=O)[C@H](Cc2ccccc2)NC(=O)CSC[C@@H](C(=O)N[C@@H](C)C(N)=O)NC(=O)[C@H]([C@@H](C)O)NC(=O)[C@H](C(C)C)NC(=O)[C@H](CC2CCCCC2)NC(=O)[C@H](CCN)NC1=O` [Compound 2176] ({CH2CO}-F[X5]DWV[Bip]E[Orn][dL][Dab][Cha]VTCA-NH2; thioether N-14), with 111 nM.
With `CCCC[C@@H]1NC(=O)CSC[C@@H](C(=O)N[C@@H](CCN)C(N)=O)NC(=O)[C@H](CCC(=O)O)NC(=O)[C@H](C(C)(C)O)NC(=O)[C@H](CC2CCCCC2)NC(=O)[C@H](CCN)NC(=O)[C@@H](CC(C)C)NC(=O)[C@H](CCCN)NC(=O)[C@H](Cc2ccc(C(=O)O)cc2)NC(=O)[C@H](Cc2ccc(-c3ccccc3)cc2)NC(=O)[C@H](Cc2ccc(C(=O)O)cc2)NC(=O)[C@H](Cc2cccc(C)c2)NC(=O)[C@H](CC(=O)O)NC(=O)[C@H](Cc2ccc(OCC(=O)O)cc2)NC1=O` [Example 2714] ({CH2CO}-[Nle]Y(Carboxymethyl)D[Phe(3-Me)][Phe(4-COOH)][Bip][Phe(4-COOH)][Orn][dL][Dab][Cha][Val(3-OH)]EC[Dab]-NH2; thioether N-14), under setting [1], the half-maximal inhibitory concentration (IC50) is 0.3 nM.
